In US20230085307A1, “PYRIDAZINONE COMPOUND AND HERBICIDE” (NISSAN CHEMICAL CORPORATION, priority 2019, published 2023):

Tests used:
chickweed [1] = experiment: Test Example 4: herbicidal effect by soil treatment (Table 19, symbol P); assay type: in vivo, common chickweed (Stellaria media); conditions: 96 g/ha
Summary of the method: (§1)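 Applied as a water-diluted emulsion, the compound was sprayed onto soil covering newly sown seeds. Evaluation came three weeks after application, in a greenhouse held at 25° C. to 30° C.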

velvetleaf [2] = experiment: Test Example 4: herbicidal effect by soil treatment (Table 19, symbol M); assay type: in vivo, velvetleaf (Abutilon theophrasti); conditions: 96 g/ha
Summary of the method: as §1

persian speedwell [3] = experiment: Test Example 4: herbicidal effect by soil treatment (Table 19, symbol R); assay type: in vivo, Persian speedwell (Veronica persica); conditions: 96 g/ha
Summary of the method: as §1

Chinese sprangletop = experiment: Test Example 3: herbicidal effect by foliage application, Wagner pot (Table 18, symbol D); assay type: in vivo, chinese sprangletop (Leptochloa chinensis); conditions: 96 g/ha
Summary of the method: (§2)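 Plants were sown in alluvial soil held under 0.1–0.5 cm standing water and grown 14 days in a greenhouse at 25–30 °C. An emulsifiable formulation, water-diluted to the set dose, was then sprayed onto the foliage, and effects were scored three weeks later using previously defined criteria.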

redroot pigweed [4] = experiment: Test Example 4: herbicidal effect by soil treatment (Table 19, symbol N); assay type: in vivo, redroot pigweed (Amaranthus retroflexus); conditions: 96 g/ha
Summary of the method: as §1

barnyard grass [5] = experiment: Test Example 5: herbicidal effect by foliage application, plastic box (Table 20, symbol H); assay type: in vivo, barnyard grass (Echinochloa crus-galli); conditions: foliage application, 96 g/ha, evaluated three weeks after application
Summary of the method: (§3)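 Sow seeds spot-wise in sterilized diluvial soil; cover with ~1.5 cm soil. Grow 14 days in greenhouse, 25° C. to 30° C. Spray foliage with emulsion diluted to predetermined amount. Rate effect after 3 weeks.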

persian speedwell [6] = experiment: Test Example 5: herbicidal effect by foliage application, plastic box (Table 20, symbol R); assay type: in vivo, Persian speedwell (Veronica persica); conditions: foliage application, 96 g/ha, evaluated three weeks after application
Summary of the method: as §3

Italian ryegrass [7] = experiment: Test Example 5: herbicidal effect by foliage application, plastic box (Table 20, symbol K); assay type: in vivo, Italian ryegrass (Lolium multiflorum); conditions: foliage application, 96 g/ha, evaluated three weeks after application
Summary of the method: as §3

green foxtail [8] = experiment: Test Example 4: herbicidal effect by soil treatment (Table 19, symbol G); assay type: in vivo, green foxtail (Setaria viridis); conditions: 96 g/ha
Summary of the method: as §1

windgrass [9] = experiment: Test Example 4: herbicidal effect by soil treatment (Table 19, symbol L); assay type: in vivo, windgrass (Apera spica-venti); conditions: 96 g/ha
Summary of the method: as §1

lambsquarters [10] = experiment: Test Example 4: herbicidal effect by soil treatment (Table 19, symbol O); assay type: in vivo, lambsquarters (Chenopodium album); conditions: 96 g/ha
Summary of the method: as §1

chickweed [11] = experiment: Test Example 5: herbicidal effect by foliage application, plastic box (Table 20, symbol P); assay type: in vivo, common chickweed (Stellaria media); conditions: foliage application, 96 g/ha, evaluated three weeks after application
Summary of the method: as §3

blackgrass [12] = experiment: Test Example 4: herbicidal effect by soil treatment (Table 19, symbol J); assay type: in vivo, blackgrass (Alopecurus myosuroides); conditions: 96 g/ha
Summary of the method: as §1

windgrass [13] = experiment: Test Example 5: herbicidal effect by foliage application, plastic box (Table 20, symbol L); assay type: in vivo, windgrass (Apera spica-venti); conditions: foliage application, 96 g/ha, evaluated three weeks after application
Summary of the method: as §3

Italian ryegrass [14] = experiment: Test Example 4: herbicidal effect by soil treatment (Table 19, symbol K); assay type: in vivo, Italian ryegrass (Lolium multiflorum); conditions: 96 g/ha
Summary of the method: as §1

green foxtail [15] = experiment: Test Example 5: herbicidal effect by foliage application, plastic box (Table 20, symbol G); assay type: in vivo, green foxtail (Setaria viridis); conditions: foliage application, 96 g/ha, evaluated three weeks after application
Summary of the method: as §3

wild oat [16] = experiment: Test Example 4: herbicidal effect by soil treatment (Table 19, symbol I); assay type: in vivo, wild oat (Avena fatua); conditions: 96 g/ha
Summary of the method: as §1

barnyard grass [17] = experiment: Test Example 3: herbicidal effect by foliage application, Wagner pot (Table 18, symbol H); assay type: in vivo, barnyard grass (Echinochloa crus-galli); conditions: 96 g/ha
Summary of the method: as §2

redroot pigweed [18] = experiment: Test Example 5: herbicidal effect by foliage application, plastic box (Table 20, symbol N); assay type: in vivo, redroot pigweed (Amaranthus retroflexus); conditions: foliage application, 96 g/ha, evaluated three weeks after application
Summary of the method: as §3

southern crabgrass [19] = experiment: Test Example 5: herbicidal effect by foliage application, plastic box (Table 20, symbol F); assay type: in vivo, southern crabgrass (Digitaria ciliaris); conditions: foliage application, 96 g/ha, evaluated three weeks after application
Summary of the method: as §3

blackgrass [20] = experiment: Test Example 5: herbicidal effect by foliage application, plastic box (Table 20, symbol J); assay type: in vivo, blackgrass (Alopecurus myosuroides); conditions: foliage application, 96 g/ha, evaluated three weeks after application
Summary of the method: as §3

barnyard grass [21] = experiment: Test Example 4: herbicidal effect by soil treatment (Table 19, symbol H); assay type: in vivo, barnyard grass (Echinochloa crus-galli); conditions: 96 g/ha
Summary of the method: as §1

wild oat [22] = experiment: Test Example 5: herbicidal effect by foliage application, plastic box (Table 20, symbol I); assay type: in vivo, wild oat (Avena fatua); conditions: foliage application, 96 g/ha, evaluated three weeks after application
Summary of the method: as §3

velvetleaf [23] = experiment: Test Example 5: herbicidal effect by foliage application, plastic box (Table 20, symbol M); assay type: in vivo, velvetleaf (Abutilon theophrasti); conditions: foliage application, 96 g/ha, evaluated three weeks after application
Summary of the method: as §3

southern crabgrass [24] = experiment: Test Example 4: herbicidal effect by soil treatment (Table 19, symbol F); assay type: in vivo, southern crabgrass (Digitaria ciliaris); conditions: 96 g/ha
Summary of the method: as §1

lambsquarters [25] = experiment: Test Example 5: herbicidal effect by foliage application, plastic box (Table 20, symbol O); assay type: in vivo, lambsquarters (Chenopodium album); conditions: foliage application, 96 g/ha, evaluated three weeks after application
Summary of the method: as §3

Cc1nn(C)c(=O)c(-c2c(-c3ccccc3)sc3ccc(Cl)cc23)c1O [2-094]
herbicidal effect rating, P: chickweed (chickweed [1]): 0 (Herbicidal rate of 5% or less (almost no effect))
herbicidal effect rating, M: velvetleaf (velvetleaf [2]): 0 (Herbicidal rate of 5% or less (almost no effect))
herbicidal effect rating, R: persian speedwell (persian speedwell [3]): 0 (Herbicidal rate of 5% or less (almost no effect))
herbicidal effect on D (Chinese sprangletop), rating 0-5 (Chinese sprangletop): 0 (Herbicidal rate of 5% or less (almost no effect))
herbicidal effect rating, N: redroot pigweed (redroot pigweed [4]): 5 (Herbicidal rate of 90% or more (almost completely withered))
herbicidal effect on H: barnyard grass (barnyard grass [5]): 0 (Herbicidal rate of 5% or less (almost no effect))
herbicidal effect on R: persian speedwell (persian speedwell [6]): 1 (Herbicidal rate of 5% or more and less than 20%)
herbicidal effect on K: Italian ryegrass (Italian ryegrass [7]): 2 (Herbicidal rate of 20% or more and less than 40%)
herbicidal effect rating, G: green foxtail (green foxtail [8]): 0 (Herbicidal rate of 5% or less (almost no effect))
herbicidal effect rating, L: windgrass (windgrass [9]): 0 (Herbicidal rate of 5% or less (almost no effect))
herbicidal effect rating, O: lambsquarters (lambsquarters [10]): 3 (Herbicidal rate of 40% or more and less than 70%)
herbicidal effect on P: chickweed (chickweed [11]): 5 (Herbicidal rate of 90% or more (almost completely withered))
herbicidal effect rating, J: blackgrass (blackgrass [12]): 0 (Herbicidal rate of 5% or less (almost no effect))
herbicidal effect on L: windgrass (windgrass [13]): 0 (Herbicidal rate of 5% or less (almost no effect))
herbicidal effect rating, K: Italian ryegrass (Italian ryegrass [14]): 0 (Herbicidal rate of 5% or less (almost no effect))
herbicidal effect on G: green foxtail (green foxtail [15]): 0 (Herbicidal rate of 5% or less (almost no effect))
herbicidal effect rating, I: wild oat (wild oat [16]): 0 (Herbicidal rate of 5% or less (almost no effect))
herbicidal effect on H (barnyard grass), rating 0-5 (barnyard grass [17]): 2 (Herbicidal rate of 20% or more and less than 40%)
herbicidal effect on N: redroot pigweed (redroot pigweed [18]): 3 (Herbicidal rate of 40% or more and less than 70%)
herbicidal effect on F: southern crabgrass (southern crabgrass [19]): 0 (Herbicidal rate of 5% or less (almost no effect))
herbicidal effect on J: blackgrass (blackgrass [20]): 0 (Herbicidal rate of 5% or less (almost no effect))
herbicidal effect rating, H: barnyard grass (barnyard grass [21]): 0 (Herbicidal rate of 5% or less (almost no effect))
herbicidal effect on I: wild oat (wild oat [22]): 0 (Herbicidal rate of 5% or less (almost no effect))
herbicidal effect on M: velvetleaf (velvetleaf [23]): 3 (Herbicidal rate of 40% or more and less than 70%)
herbicidal effect rating, F: southern crabgrass (southern crabgrass [24]): 0 (Herbicidal rate of 5% or less (almost no effect))
herbicidal effect on O: lambsquarters (lambsquarters [25]): 2 (Herbicidal rate of 20% or more and less than 40%)
